US20260070890A1, “MODULATORS OF TAU LIQUID-LIQUID PHASE SEPARATION AND METHODS THEREOF” (JAWAHARLAL NEHRU CENTRE FOR ADVANCED SCIENTIFIC RESEARCH, priority 2023, published 2026)

What was measured:
[1] = Steady state fluorescence Zn titration (Stern-Volmer fit); type: binding; conditions: for Stern-Volmer binding constant (KSV): Table 1, with Zn, factor 10^4; for Stern-Volmer constant KSV with Zn^2+: compound 20 μM, Zn^2+ 2.5 to 40 μM, emission 530 nm
Experimental: The metal chelation ability of the compounds were assessed by UV-Visible absorbance and fluorescence spectroscopy by metal titration experiments. The small molecules were dissolved in HEPES buffer to make concentration of 20 μM and the metal ion (Zn^2+) was titrated with increasing concentration from 2.5 μM to 40 μM with 2 min of incubation between each addition. The change in absorbance and fluorescence spectra of compound was recorded and analysed for metal-small molecules interaction. The data was plotted in Origin (Pro), Version 2022 and analysed for determination of dissociation constant. The absorbance values were fitted using Benesi-Hildebrand equation to elucidate the binding constant of metals with small molecules.
where, KB is the binding or association constant, and A0 and Aα represent the peak absorbance of small molecules in the absence and presence of the highest concentration of metal ion (40 μM). The reciprocal of KB was taken as the dissociation constant, Kd. The change in fluorescence was fitted using Stern-Volmer equation to determine KSV: […]
where, F0 and F are the fluorescence intensities of small molecules in the absence and presence of metal ion, respectively. KSV is the Stern-Volmer quenching constant and [Q] is the concentration of quencher/enhancer (metal ion in this case).
Fluorescence spectroscopy is a reliable method to probe host-probe interactions, wherein the change in wavelength or intensity of emission spectrum is indicative of the strength of complexation. […] The classical Stern-Volmer equation was used to quantify the quenching and measure the Stern-Volmer constant, KSV wherein a higher value of KSV implies ability of the compound to form strong complexation with the host (Zn^2+). […] Due to the good binding affinity of the small molecules towards Zn, the designed small molecules were anticipated to chelate and interfere tau-Zn interaction.

[2] = Isothermal titration calorimetry of small molecule-Zn interaction; type: binding; conditions: for ΔG of binding to Zn, ITC / ΔH (enthalpy) of binding to Zn, ITC / −TΔS (entropy) of binding to Zn, ITC: 298 K; for ΔG / ΔH / −TΔS: Table 1, with Zn
Experimental: ITC measurements were performed using a Malvern MicroCal-PEAQ ITC machine. Solutions of small molecules (compounds 1a, 1b and 1c) of the present disclosure and ZnCl2 were prepared in 100% DMSO. A revolving syringe was used to inject 26 consecutive 1.5 μL aliquots of Zn^2+ into the small molecules solution to ensure a continual mixing. The ITC cell reference power and temperature were set at […] and 25° C., respectively. To guarantee complete equilibration before the next injection, an interval of 150 s was maintained between subsequent measurements. Obtained isotherms were corrected by the subtraction of heat of dilution (buffer and small molecules). By using a single site binding model in the MicroCal PEAQ-ITC analysis software, nonlinear least squares fitting of the binding isotherms was carried out to estimate the thermodynamic parameters and dissociation constant (Kd).
The thermodynamic parameters of the interactions between small molecules and Zn^2+ were determined by ITC study. ZnCl2 solution in the injection syringe was titrated into compound solution in the sample cell. The heat change was measured and plotted as a function of the molar ratio of small molecules and Zn^2+. […] Right panel depicts the integrated binding isotherms as a function of the binary complex at 298 K. Fitting was obtained from the data points with one set of the binding site model). […] The Kd values determined from ITC validate the results obtained from other binding studies discussed vide supra (lower Kd and higher KSV). Both endothermic and exothermic peaks were observed upon binding of 1c and Zn resulting in a net negative ΔH value, and the data was fitted to exothermic one site binding model. For a reaction to be spontaneous, it must be favored by at least one of the factors, enthalpy or entropy.

tau protein = molecular target: T1, tau protein (Homo sapiens, UniProt P10636); assay: Tau intrinsic fluorescence quenching assay; type: binding; conditions: tau 5 μM, compound 250 nM to 25 μM; for Kd: PBS pH 7.4, read-out: One site binding saturation fit Kd with tau
T1 construct: the full-length tau plasmid construct was transformed into E. coli, BL21 strain; inferred from the Ni-NTA purification; made in house; host or cells: E. coli BL21
Experimental: Tau protein was expressed and purified from E. coli as per known procedures. Briefly, the full-length tau plasmid construct was transformed into E. coli, BL21 strain and cultured in LB broth containing ampicillin ([…]) and chloramphenicol (50 μM) at 37° C. with continuous shaking at 180 rpm overnight. Then 1% of primary culture was transferred to 1 L of LB broth with antibiotics and incubated until it reaches OD of 0.6. The culture was induced with 1 mM IPTG and further cultured for 4 h. Cells were pelleted by centrifugation (7000 rpm) at 4° C. and resuspended in 50 mM phosphate buffer (0.3 M NaCl, 5 mM imidazole and 1 mM of PMSF, pH 8) and boiled to precipitate unwanted proteins for 10-15 min with intermittent agitation. The supernatant containing tau protein was collected and further purified by Ni-NTA affinity column chromatography. The purified tau protein was quantified by Bradford assay, characterised by SDS-PAGE and stored at −80° C. until further use.
Tau was dissolved in PBS buffer pH 7.4 to make 5 μM and titrated with small molecules from 250 nM to 25 μM concentration and fluorescence spectra was recorded by exiting at 274 nm. The emission spectra were plotted and analysed using Origin (Pro), Version 2022 and GraphPad Prism 9.4.0, fitted with one site binding saturation equation to find Kd. Further fluorescence quenching was fitted with Stern-Volmer equation to determine KSV.
The binding of small molecules with tau protein was monitored using tau intrinsic fluorescence spectral changes. […] The change in fluorescence intensity was fitted with one site binding saturation model to determine the Kd values. […] The KSV values were obtained from the Stern-Volmer equation to further quantify the extent of binding. […] This further emphasized the significance of the skeletal template of the modulators for tau interaction, rather than individual substituted aromatic amino acids.

Zn induced tau LLPS = molecular target: T2, Zn induced tau LLPS (Homo sapiens, UniProt P10636); assay: DIC microscopy, inhibition of Zn induced tau LLPS; type: biochemical; conditions: tau 10 μM, Zn 40 μM, compound 20 μM added before Zn; Zn alone ~1.3
T2 construct: the full-length tau plasmid construct was transformed into E. coli, BL21 strain; inferred from the Ni-NTA purification; made in house; host or cells: E. coli BL21
Experimental: (§1) Liquid-liquid phase separation (LLPS) of tau was induced by molecular crowding in LLPS buffer (10 mM HEPES, 100 mM NaCl, 10% PEG 4000 and pH 7.4) and Zn.^32 Tau (10 μM) was suspended in LLPS buffer and added Zn (40 μM) incubate for 10 min to induce LLPS. For inhibition studies the tau in LLPS buffer was treated with small molecules (20 μM) before addition of Zn and for control same volume of vehicle (DMSO) was added. Dissolution samples were prepared by induction of LLPS for 10 min using Zn and followed by addition of small molecules and further incubation of 15 min. The samples were drop-cast (10 μL) on clean glass slides, mount with coverslip and immediately imaged in Olympus FLUOVIEW 3000 microscope in differential interface contrast (DIC) mode with 63× oil immersion objective. The images were acquired in multiple areas and planes to confirm the LLPS formation and its modulation by small molecules. Image analysis was performed by using ImageJ software, plotted normalised droplet size against control and analysed by GraphPad Prism.
(§2) The strong binding interaction of small molecules with Zn and tau encouraged us to evaluate them for modulation of Zn indued LLPS of tau. The ability of small molecules to inhibit tau LLPS and formation of droplets were studied by differential interface contrast (DIC) microscopy (FIG. 4). In the presence of Zn, tau readily undergoes LLPS and formed liquid like droplets within 10 min, as evident from the observed fusion droplets (FIG. 4A and inset). […] The inhibitory effect is in the order of 1c followed by 1b and 1a, which agrees with Zn and tau binding ability of small molecules. The LLPS of tau is through transient weak interactions and we believe that the small molecules with strong multivalent interactions with tau and Zn (chelation) potentially dissolve the phase separated droplets. […] The absorption spectra of 1c in the presence of tau and Zn (independently) and together was recorded. […]

[3] = molecular target: T3, Zn induced tau LLPS condensates (Homo sapiens, UniProt P10636); assay: DIC microscopy, dissolution of phase separated tau condensates; type: biochemical; conditions: LLPS induced 10 min with Zn, then compound 15 min; Zn alone 2.26
T3 construct: the full-length tau plasmid construct was transformed into E. coli, BL21 strain; inferred from the Ni-NTA purification; made in house; host or cells: E. coli BL21
Experimental: as §1, §2

tau and Zn = molecular target: T4, tau and Zn (Homo sapiens, UniProt P10636); assay: UV-Visible spectroscopy, preferential binding among tau and Zn; conditions: absorption spectra with tau, Zn and both
T4 construct: the full-length tau plasmid construct was transformed into E. coli, BL21 strain; inferred from the Ni-NTA purification; made in house; host or cells: E. coli BL21
Experimental: as §2, with “droplets. To evaluate the reversal effect of small molecules on phase separated droplets, tau LLPS was induced (10 min) and treated with small molecules for 15 min followed by visualization by DIC imaging. […] The droplet size was reduced to less than control in case of 1c treated samples (˜0.66-fold) indicating its ability to inhibit Zn induced tau LLPS. The modulatory effect of 1c prompted to look for its preferential interaction among tau and Zn.” for “droplets.”

T2 sequence (P10636 1-441 isoform P10636-8): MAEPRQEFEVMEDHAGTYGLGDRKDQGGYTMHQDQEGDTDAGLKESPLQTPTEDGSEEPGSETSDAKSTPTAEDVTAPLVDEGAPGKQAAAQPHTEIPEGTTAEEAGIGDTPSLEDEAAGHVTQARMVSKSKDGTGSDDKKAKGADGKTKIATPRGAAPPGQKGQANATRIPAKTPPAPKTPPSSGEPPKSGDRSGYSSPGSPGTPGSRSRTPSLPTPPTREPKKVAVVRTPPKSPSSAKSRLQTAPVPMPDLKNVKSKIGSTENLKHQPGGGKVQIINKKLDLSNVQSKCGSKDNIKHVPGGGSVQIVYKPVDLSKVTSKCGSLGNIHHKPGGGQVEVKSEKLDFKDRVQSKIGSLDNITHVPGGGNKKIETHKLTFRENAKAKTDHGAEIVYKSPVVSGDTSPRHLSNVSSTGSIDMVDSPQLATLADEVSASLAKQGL
T3 sequence (P10636 1-441 isoform P10636-8): as above
T1 sequence (P10636 1-441 isoform P10636-8): as above
T4 sequence (P10636 1-441 isoform P10636-8): as above

Row | Stern-Volmer binding constant (KSV) [1] | ΔG of binding to Zn, ITC [2] | ΔH (enthalpy) of binding to Zn, ITC [2] | −TΔS (entropy) of binding to Zn, ITC [2] | Stern-Volmer KSV with tau (tau protein) | Kd (tau protein) | droplet size (normalized to control), inhibition of LLPS (Zn induced tau LLPS) | droplet size (normalized to control), dissolution of condensates [3] | ΔH (enthalpy) of binding to Zn, ITC ([2]; unit not given) | −TΔS (entropy) of binding to Zn, ITC ([2]; unit not given) | SMILES | Stern-Volmer constant KSV with Zn^2+ [1] | ΔG ([2]; unit not given) | ΔH ([2]; unit not given) | −TΔS ([2]; unit not given) | preferential interaction among tau and Zn (tau and Zn)
1 | 1.7 × × 10^4 | -6.45 kcal/mol | -0.698 ± 0.223 kcal/mol | -5.75 kcal/mol | 150000 M⁻¹ | 3950 ± 320 nM | ~1 fold | ~0.66 fold |  |  | O=C1N[C@@H](Cc2c[nH]c3ccccc23)C(=O)N[C@H]1CCCCN1C(=O)c2cccc3c(N(Cc4ccccn4)Cc4ccccn4)ccc(c23)C1=O [Compound 1c, 2-(4-((2S,5S)-5-((1H-indol-3-yl)methyl)-3,6-dioxopiperazin-2-yl)butyl)-6-(bis(pyridin-2-ylmethyl)amino)-1H-benzo[de]isoquinoline-1,3(2H)-dione] | 1.7×10^4 | −6.45 | −0.693 | −5.75 | preferential interaction of 1c with tau over Zn
2 | 0.06 × × 10^4 | -3.48 kcal/mol |  |  | 190000 M⁻¹ | 2880 ± 510 nM | ~1.19 fold | ~1.1 fold | −13.1±0.13 | 9.59 | O=C1N[C@@H](Cc2ccccc2)C(=O)N[C@H]1CCCCN1C(=O)c2cccc3c(N(Cc4ccccn4)Cc4ccccn4)ccc(c23)C1=O [Compound 1a, 2-(4-((2S,5S)-5-benzyl-3,6-dioxopiperazin-2-yl)butyl)-6-(bis(pyridin-2-ylmethyl)amino)-1H-benzo[de]isoquinoline-1,3(2H)-dione] | 0.06×10^4 | −3.48 | −13.1 | 9.59 | 
3 | 1.7 × × 10^4 | -5.78 kcal/mol | -0.551 ± 0.056 kcal/mol | -5.23 kcal/mol | 160000 M⁻¹ | 1740 ± 170 nM | ~1.12 fold | ~1.6 fold |  |  | O=C1N[C@@H](Cc2ccc(O)cc2)C(=O)N[C@H]1CCCCN1C(=O)c2cccc3c(N(Cc4ccccn4)Cc4ccccn4)ccc(c23)C1=O [Compound 1b, 6-(bis(pyridin-2-ylmethyl)amino)-2-(4-((2S,5S)-5-(4-hydroxybenzyl)-3,6-dioxopiperazin-2-yl)butyl)-1H-benzo[de]isoquinoline-1,3(2H)-dione] | 1.7×10^4 | −5.78 | −0.551 | −5.23 | 
